This experiment concerns the target T1, soluble human BACE (Homo sapiens, UniProt P56817).
T1 construct: cells secreting human recombinant soluble BACE; made in house; conditioned medium
Nature of the experiment: BACE activity Cell Free Assay (ELISA of cleaved synthetic APP substrate). It counts as biochemical.

We go through 23 molecules from patent US20110224231A1, “Novel Lactams as Beta Secretase Inhibitors” (Pfizer Inc., priority 2008, published 2011).

Structures can show the parent of a compound that is named as a salt.

T1 sequence (P56817 46-457 limits assumed): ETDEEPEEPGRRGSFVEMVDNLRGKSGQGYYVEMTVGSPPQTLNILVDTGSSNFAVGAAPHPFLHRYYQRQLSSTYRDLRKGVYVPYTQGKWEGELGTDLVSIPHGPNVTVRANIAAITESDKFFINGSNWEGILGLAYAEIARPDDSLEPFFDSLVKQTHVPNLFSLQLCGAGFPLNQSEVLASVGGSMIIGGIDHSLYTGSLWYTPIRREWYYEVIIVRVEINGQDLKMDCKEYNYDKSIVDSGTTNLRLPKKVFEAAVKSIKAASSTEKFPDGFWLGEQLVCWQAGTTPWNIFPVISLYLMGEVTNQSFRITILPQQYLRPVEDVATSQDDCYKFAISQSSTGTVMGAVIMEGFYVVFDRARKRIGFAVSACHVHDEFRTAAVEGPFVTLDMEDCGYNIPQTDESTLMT

The IC50 is the concentration that inhibits the measured activity by half. A lower IC50 goes with higher potency. Regarding `C[C@H]1C[C@@]2(C=CC(=O)N2c2cnccn2)CCN1Cc1ccc(O)c(Cl)c1` [#140, (5R,7S)-8-(3-chloro-4-hydroxybenzyl)-7-methyl-1-pyrazin-2-yl-1,8-diazaspiro[4.5]dec-3-en-2-one, ammonium salt], the IC50 lay in the range of 10000 to 100000 nM.

Turning to `Cc1cccc(N2C(=O)C=C[C@]23CCN(Cc2ccc(O)c(Cl)c2)[C@@H](C)C3)n1` [#141, (5R,7S)-8-(3-chloro-4-hydroxybenzyl)-7-methyl-1-(6-methylpyridin-2-yl)-1,8-diazaspiro[4.5]dec-3-en-2-one, ammonium salt], the IC50 lay in the range of 1000 to 10000 nM.

For the molecule `CC(C)Cc1ocnc1CN1CC[C@]2(C=CC(=O)N2c2cccc(F)c2)C[C@@H]1C` [#200], the IC50 was in the range of 1000 to 10000 nM.

Take `C[C@H]1C[C@@]2(C=CC(=O)N2c2cccc(F)c2)CCN1Cc1ccc(O)c(Cl)c1` [#201]: the IC50 was in the range of 1000 to 10000 nM.

For `Cc1ccccc1-c1cc(CN2CC[C@]3(C=CC(=O)N3c3cccc(F)c3)C[C@@H]2C)ccc1O` [#202], the IC50 is 1 to 1000 nM.

In the case of `CC[C@@H](C)Oc1cccc(CN2CC[C@]3(C=CC(=O)N3c3cccc(F)c3)C[C@@H]2C)c1` [#203], the IC50 was 1000 to 10000 nM.

Consider `CC(C)C(=O)c1cc(CN2CC[C@]3(C=CC(=O)N3c3cccc(F)c3)C[C@@H]2C)ccc1O` [#204], for which the IC50 was in the range of 1000 to 10000 nM.

In turn, `CC(C)C(O)c1cc(CN2CCC3(C=CC(=O)N3c3cccc(F)c3)CC2C)ccc1O` (centres unmarked) [#205] came in with an IC50 of 1 to 1000 nM.

Regarding `C[C@H]1C[C@@]2(C=CC(=O)N2c2cccc(F)c2)CCN1Cc1ccc(O)c(-c2ccccc2Cl)c1` [#206], the IC50 lay in the range of 1 to 1000 nM.

`C[C@H]1C[C@@]2(C=CC(=O)N2c2cccc(F)c2)CCN1Cc1ncoc1-c1ccccc1` [#207] showed an IC50 of 10000 to 100000 nM.

As to `C[C@H]1C[C@@]2(C=CC(=O)N2c2cccc(F)c2)CCN1Cc1ccc(O)c(-c2ccccc2F)c1` [#208], the IC50 was 1 to 1000 nM.

With `Cc1ccc(F)cc1-c1cc(CN2CC[C@]3(C=CC(=O)N3c3cccc(F)c3)C[C@@H]2C)ccc1O` [#209], the IC50 fell in the range of 1 to 1000 nM.

`C[C@H]1C[C@@]2(C=CC(=O)N2c2cccc(F)c2)CCN1Cc1scnc1CC1CC1` [#210] showed an IC50 of 1 to 1000 nM.

Take `C[C@H]1C[C@@]2(C=CC(=O)N2c2cccc(F)c2)CCN1Cc1scnc1CC1CCC1` [#211]: the IC50 lay within 1 to 1000 nM.

`Cc1ccsc1-c1cc(CN2CC[C@]3(C=CC(=O)N3c3cccc(F)c3)C[C@@H]2C)ccc1O` [#212] gave an IC50 of 1 to 1000 nM.

As for `CC(C)Cc1ocnc1CN1CC[C@]2(CCC(=O)N2c2cccc(F)c2)C[C@@H]1C` [#213], the IC50 fell in the range of 10000 to 100000 nM.

The molecule `C[C@H]1C[C@@]2(CCC(=O)N2c2cccc(F)c2)CCN1Cc1ccc(O)c(Cl)c1` [#214] registered an IC50 of 1000 to 10000 nM.

Molecule `Cc1ccccc1-c1cc(CN2CC[C@]3(CCC(=O)N3c3cccc(F)c3)C[C@@H]2C)ccc1O` [#215] displayed an IC50 of 1 to 1000 nM.

Turning to `CC[C@@H](C)Oc1cccc(CN2CC[C@]3(CCC(=O)N3c3cccc(F)c3)C[C@@H]2C)c1` [#216], the IC50 was in the range of 1000 to 10000 nM.

In turn, `Cc1ccsc1-c1cc(CN2CC[C@]3(CCC(=O)N3c3cccc(F)c3)C[C@@H]2C)ccc1O` [#217] came in with an IC50 of 1000 to 10000 nM.

`CC(C)Oc1cc(CN2CC[C@]3(C=CC(=O)N3c3cccc(F)c3)C[C@@H]2C)ccc1O` [Example 87, (5R7S)-1-(3-fluorophenyl)-8-(4-hydroxy-3-isopropoxybenzyl)-7-methyl-1,8-diazaspiro[4,5]dec-3-en-2-one hydrochloride] had a half-inhibitory concentration (IC50) of 1 to 1000 nM.

`Cc1ccccc1-c1cccc(CN2CC[C@]3(CCC(=O)N3c3cccc(F)c3)C[C@@H]2C)c1` [Example 88, (5R,7S)˜1˜(3˜fluorophenyl)˜7˜methyl˜8˜[(2′˜methylbiphenyl˜3˜yl)methyl]˜1,8˜diazaspiro[4.5]decan˜2˜one hydrochloride] registered an IC50 of 1000 to 10000 nM.

In the case of `CC(C)Oc1cc(CN2CC[C@]3(CCC(=O)N3c3cccc(F)c3)C[C@@H]2C)ccc1O` [Example 89, (5R,7S)˜1˜(3˜fluorophenyl)˜8˜(4˜hydroxy˜3˜isopropoxybenzyl)˜7˜methyl˜1,8˜diazaspiro[4.5]decan˜2˜one hydrochloride], the IC50 lay within 1 to 1000 nM.
